What was measured:
[1] = In vitro stability in various media at 37° C. (radio-HPLC); assay type: in vitro ADME
Text: (§1) For synthesis of ^125I-labeled aldehyde [^125I] 5, specific radioactive analogue 4-iodo-N-(4-oxobutyl) benzamide) 5 was synthesized by coupling of 4-aminobutyraldehyde diethyl acetal with 4-iodobenzoic acid under basic conditions and a subsequent reduction under acidic conditions (Scheme 1). The radioiodination shown in 6 was achieved using [^125I] NaI and chloramines-T as oxidants (Scheme 3). The radioiodination reaction was terminated by adding an aqueous solution of sodium metabisulfite. After HPLC purification of the crude product, [^125I] 5 was obtained with high radiochemical yield (72±6%, n=5). The specific activity was 45 GBq/μmol and the chemical purity was more than 99%. In the HPLC chromatogram of the crude mixture, the main product [^125I] 5 was clearly shown at 22.6 minutes (FIG. 1). Radio-labeling reactions were performed by using various amounts of radioisotopes (100 μCi to 1 mCi), but the radiochemical results were consistent. The radioactive iodine compound [^125I] […] The compound [^125I]

[2] = Storage stability of the radioiodinated aldehyde in the refrigerator; assay type: physicochemical
Text: as §1

Compound: O=CCCCNC(=O)c1ccc([125I])cc1 [[^125I] 5]
- time shown to be stable in medium ([1]; PBS): ≥ 24 h
- time shown to be stable in medium ([1]; mouse serum): ≥ 24 h
- time shown to be stable in medium ([1]; saline): ≥ 24 h
- hydrolysis ([2]; compared with active ester-based prosthetic groups (Bolton-Hunter-reagent)): not hydrolyzed
- time found to be stable in the refrigerator ([2]; refrigerator (4° C.)): more than 6 months

From patent US11298431B2, “Method for labeling radioisotope radiolabeling compound and kit comprising the same for labeling radioisotope” (KOREA ATOMIC ENERGY RESEARCH INSTITUTE, priority 2018, dated 2022)
